# In ChEMBL document CHEMBL1148115, “Malevamide D: isolation and structure determination of an isodolastatin H analogue from the marine cyanobacterium Symploca hydnoides” (J Nat Prod, 2002):
# Experiments:
# Type in all cases: functional, cell-based
# SK-MEL-28 = assay: Cytotoxicity against human SK-MEL-28 cells
# P388 = assay: Cytotoxicity against mouse P388 cells
# A549 = assay: Cytotoxicity against human A549 cells
# HT-29 = assay: Cytotoxicity against human HT-29 cells
structure (smiles),measurement,setting,value
CC[C@H](C)[C@@H](C(=O)N[C@H](C(=O)N(C)[C@@H](C(C)C)[C@@H](CC(=O)N1CCC[C@H]1[C@H](OC)[C@@H](C)C(=O)O[C@H](CO)Cc1ccccc1)OC)C(C)C)N(C)C [MALEVAMIDE D],IC50,SK-MEL-28,700 pM
same,IC50,P388,300 pM
same,IC50,A549,300 pM
same,IC50,HT-29,300 pM
